Among the data in publication PMC6934184, “Selective DNA-PKcs inhibition extends the therapeutic index of localized radiotherapy and chemotherapy” (The Journal of Clinical Investigation, 2019) are inhibition values, retold here.

For the experiment, the target named is T1, EGFR (ErbB1) (Homo sapiens, UniProt P00533).
T1 construct: purchased Thermo Fisher Scientific (Life Technologies) SelectScreen
As to the kind of experiment: SelectScreen Z'LYTE. Type of experiment: biochemical. The procedure, abridged: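 SelectScreen broad panel; activity (Z'LYTE, Adapta) plus binding formats. ATP: Km app for CSF1R Z'LYTE; 10 for CAMK1 Adapta. Readout = % per kinase.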

T1 sequence (P00533 25-1210): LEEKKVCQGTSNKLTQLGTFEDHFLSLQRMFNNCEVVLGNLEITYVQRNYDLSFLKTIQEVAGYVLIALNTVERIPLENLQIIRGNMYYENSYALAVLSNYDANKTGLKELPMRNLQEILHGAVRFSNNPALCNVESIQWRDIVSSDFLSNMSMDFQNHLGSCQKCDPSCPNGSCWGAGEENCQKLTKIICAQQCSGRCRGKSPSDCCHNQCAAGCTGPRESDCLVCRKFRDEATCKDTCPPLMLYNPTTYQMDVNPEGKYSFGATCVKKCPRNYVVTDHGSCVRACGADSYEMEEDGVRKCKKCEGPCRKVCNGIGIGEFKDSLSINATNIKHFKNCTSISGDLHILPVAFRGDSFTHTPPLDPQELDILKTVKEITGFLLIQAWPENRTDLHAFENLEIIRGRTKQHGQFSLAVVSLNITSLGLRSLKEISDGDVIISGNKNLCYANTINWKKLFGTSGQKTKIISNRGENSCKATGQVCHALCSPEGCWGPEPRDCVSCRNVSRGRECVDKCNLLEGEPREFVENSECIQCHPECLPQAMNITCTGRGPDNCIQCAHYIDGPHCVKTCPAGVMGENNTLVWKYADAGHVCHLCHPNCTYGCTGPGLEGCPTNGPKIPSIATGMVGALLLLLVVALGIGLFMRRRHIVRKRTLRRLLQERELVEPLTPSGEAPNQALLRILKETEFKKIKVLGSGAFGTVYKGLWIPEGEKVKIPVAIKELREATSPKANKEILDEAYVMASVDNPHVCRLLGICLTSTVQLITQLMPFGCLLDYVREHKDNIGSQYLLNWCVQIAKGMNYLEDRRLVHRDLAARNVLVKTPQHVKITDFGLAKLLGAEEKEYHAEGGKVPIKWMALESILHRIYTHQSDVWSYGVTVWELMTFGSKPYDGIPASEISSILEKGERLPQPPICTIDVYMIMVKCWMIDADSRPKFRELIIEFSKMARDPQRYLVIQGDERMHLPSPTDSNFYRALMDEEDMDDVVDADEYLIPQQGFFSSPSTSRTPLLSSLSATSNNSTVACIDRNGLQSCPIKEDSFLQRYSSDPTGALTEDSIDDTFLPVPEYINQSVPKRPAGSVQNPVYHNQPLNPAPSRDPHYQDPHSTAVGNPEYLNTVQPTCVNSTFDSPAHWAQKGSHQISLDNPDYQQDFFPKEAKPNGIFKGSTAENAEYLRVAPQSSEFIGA

As to `CN(C(=O)CN1CCOCC1)c1ccc2sc3c(-c4cccc5c(=O)cc(N6CC7CCC(C6)O7)oc45)cccc3c2c1` [NU5455], the inhibition at 1 µM was determined as 6%.
